Test results taken from the NIST ThermoML archive (doi:10.1021/acs.jced.9b00187).
Numbers after ± are expanded uncertainties.

How the values were obtained:
[1] = Liquid; for vapor or sublimation pressure: Closed cell (Static) method; for viscosity: Moving piston method
[2] = xn = mol fraction of the nth substance listed; conditions: Liquid, Moving piston method

O=C=O [carbon dioxide]
[1]
Conditions	vapor or sublimation pressure [kPa]
282.15 K	4392 ± 54
287.11 K	4961 ± 54
291.84 K	5555 ± 55
296.64 K	6214 ± 56
301.38 K	6928 ± 57

CCCCCCCCCCCC [dodecane] + O=C=O
[2]
Conditions	viscosity [mPa·s]
283.7 K, 4630 kPa, x2 = 0.8	0.353 ± 0.039
283.97 K, 4610 kPa, x2 = 0.8	0.362 ± 0.036
284.33 K, 3710 kPa, x2 = 0.5999	0.578 ± 0.036
284.41 K, 2630 kPa, x2 = 0.401	0.96 ± 0.037
284.44 K, 2530 kPa, x2 = 0.401	0.972 ± 0.038
284.6 K, 1460 kPa, x2 = 0.2009	1.227 ± 0.052
305.43 K, 5410 kPa, x2 = 0.5999	0.487 ± 0.03
305.44 K, 5360 kPa, x2 = 0.5999	0.498 ± 0.03
305.64 K, 1770 kPa, x2 = 0.2009	0.865 ± 0.044
305.65 K, 3610 kPa, x2 = 0.401	0.667 ± 0.033
305.69 K, 1730 kPa, x2 = 0.2009	0.86 ± 0.043
305.82 K, 6880 kPa, x2 = 0.8	0.272 ± 0.027
328.83 K, 10780 kPa, x2 = 0.8	0.236 ± 0.026
328.86 K, 7350 kPa, x2 = 0.5999	0.373 ± 0.028
328.99 K, 4470 kPa, x2 = 0.401	0.493 ± 0.029
329.3 K, 2050 kPa, x2 = 0.2009	0.585 ± 0.046
350.19 K, 5510 kPa, x2 = 0.401	0.397 ± 0.028
350.49 K, 14270 kPa, x2 = 0.8	0.208 ± 0.026
350.95 K, 9320 kPa, x2 = 0.5999	0.305 ± 0.027
351.33 K, 2490 kPa, x2 = 0.2009	0.437 ± 0.031

CCCCCCCCCCCC [dodecane]
[1]
Conditions	viscosity [mPa·s]
284.6 K, 670 kPa	1.75 ± 0.05
284.6 K, 2190 kPa	1.78 ± 0.05
284.7 K, 2710 kPa	1.79 ± 0.05
284.7 K, 4240 kPa	1.82 ± 0.05
294 K, 8310 kPa	1.63 ± 0.05
322.3 K, 4240 kPa	0.98 ± 0.04
350.5 K, 690 kPa	0.66 ± 0.03
350.5 K, 4250 kPa	0.68 ± 0.03
350.5 K, 8310 kPa	0.72 ± 0.03
353.1 K, 8320 kPa	0.69 ± 0.03
